In patent publication US20100003302A1, “VASCULAR RESTENOSIS PREVENTING AGENT AND IMPLANTABLE INTRAVASCULAR DEVICE COATED THEREWITH” (priority 2001, published 2010):

Tests used:
[1] = system: vascular smooth muscles (HNB18E6E7 cell line); assay: Migration of vascular smooth muscle cells into fibrin gel containing N-chlorsuccinimide; assay type: cell-based, human; conditions: 37° C., 24 hours
Protocol: The vascular smooth muscles were collected from human vital arteries and established HNB18E6E7 was used as cell lines. The vascular smooth muscles were incubated in 6-well plates to produce confluent cultures. The resultant supernatant fluids were washed three time with warmed phosphate buffer solution (PBS) and softly added with 3 mg/mL of fibrinogen and 0.8 mL of Waymouth culture solution including 10 w/v % human serum. Then, the supernatant fluids were respectively added with N-chlorsuccinimide to adjust the final concentration of N-chlorsuccinimide to 0.08 mM, 0.8 mM, 8 mM and 80 mM, and gelled by addition of thrombin. The resultant gelled supernatants were incubated at 37° C. for 24 hours, and the numbers of the smooth muscle cells migrated into the gel was counted with a phase contrast microscope. For each concentration, the experiments were carried out to make n=3. The ordinate denotes the frequencies of migration of vascular smooth muscles into the gel, while the abscissa denotes the concentration of N-chlorsuccinimide.

[2] = system: right common iliac artery vascular injury model; assay: Neointimal formation in vascular injury model (right common iliac artery 3-times balloon injury); assay type: in vivo, rabbits; conditions: local administration by balloon immersed in 80 mM N-chlorsuccinimide vs PBS control; 4 weeks after treatment
Protocol: There were used a group of animals consisted of 5 (five) […] male rabbits aged 2 months. Vascular injury models were prepared by introducing a Fogarty catheter, Model e-060-2F, made by Baxter corporation (that is an arterial embolectomy balloon catheter) into the right common iliac artery through the right femoral artery under pentobarbital anesthesia, and then abrading the right common iliac artery 3 times under conditions of the balloon being inflated (balloon pressure: 0.5-1.0 atm). After injuring the vascular endothelium, hydrophilic balloons made by Boston Scientific Corporation, of an N-chlorsuccinimide-treated group prepared by immersing the balloons in 80 mM N-chlorsuccinimide, and of a control group prepared by immersing the balloons in PBS, were respectively inflated in the right common iliac arteries to locally administer the drug to each injured area. After 4 weeks from the treatment, the arteries were surgically removed, fixed with 10w/v % neutral buffered formalin fixative and then sectioned to prepare arterial ring tissue sections. After preparing elastic fiber stained tissue samples by EVG (Elastic Van Gieson) staining, the samples were subjected to measurements of intimal area (I) and medial area (M) to determine their ratio (I/M) as the degree of intimal thickening. […]

α2-macroglobulin = biological target: T1, α2-macroglobulin (Homo sapiens, UniProt P01023); assay: Deactivation of α2-macroglobulin (trypsin / coloring matrix S2222 assay, absorption at 405 nm); assay type: biochemical
T1 sequence (P01023 24-1474): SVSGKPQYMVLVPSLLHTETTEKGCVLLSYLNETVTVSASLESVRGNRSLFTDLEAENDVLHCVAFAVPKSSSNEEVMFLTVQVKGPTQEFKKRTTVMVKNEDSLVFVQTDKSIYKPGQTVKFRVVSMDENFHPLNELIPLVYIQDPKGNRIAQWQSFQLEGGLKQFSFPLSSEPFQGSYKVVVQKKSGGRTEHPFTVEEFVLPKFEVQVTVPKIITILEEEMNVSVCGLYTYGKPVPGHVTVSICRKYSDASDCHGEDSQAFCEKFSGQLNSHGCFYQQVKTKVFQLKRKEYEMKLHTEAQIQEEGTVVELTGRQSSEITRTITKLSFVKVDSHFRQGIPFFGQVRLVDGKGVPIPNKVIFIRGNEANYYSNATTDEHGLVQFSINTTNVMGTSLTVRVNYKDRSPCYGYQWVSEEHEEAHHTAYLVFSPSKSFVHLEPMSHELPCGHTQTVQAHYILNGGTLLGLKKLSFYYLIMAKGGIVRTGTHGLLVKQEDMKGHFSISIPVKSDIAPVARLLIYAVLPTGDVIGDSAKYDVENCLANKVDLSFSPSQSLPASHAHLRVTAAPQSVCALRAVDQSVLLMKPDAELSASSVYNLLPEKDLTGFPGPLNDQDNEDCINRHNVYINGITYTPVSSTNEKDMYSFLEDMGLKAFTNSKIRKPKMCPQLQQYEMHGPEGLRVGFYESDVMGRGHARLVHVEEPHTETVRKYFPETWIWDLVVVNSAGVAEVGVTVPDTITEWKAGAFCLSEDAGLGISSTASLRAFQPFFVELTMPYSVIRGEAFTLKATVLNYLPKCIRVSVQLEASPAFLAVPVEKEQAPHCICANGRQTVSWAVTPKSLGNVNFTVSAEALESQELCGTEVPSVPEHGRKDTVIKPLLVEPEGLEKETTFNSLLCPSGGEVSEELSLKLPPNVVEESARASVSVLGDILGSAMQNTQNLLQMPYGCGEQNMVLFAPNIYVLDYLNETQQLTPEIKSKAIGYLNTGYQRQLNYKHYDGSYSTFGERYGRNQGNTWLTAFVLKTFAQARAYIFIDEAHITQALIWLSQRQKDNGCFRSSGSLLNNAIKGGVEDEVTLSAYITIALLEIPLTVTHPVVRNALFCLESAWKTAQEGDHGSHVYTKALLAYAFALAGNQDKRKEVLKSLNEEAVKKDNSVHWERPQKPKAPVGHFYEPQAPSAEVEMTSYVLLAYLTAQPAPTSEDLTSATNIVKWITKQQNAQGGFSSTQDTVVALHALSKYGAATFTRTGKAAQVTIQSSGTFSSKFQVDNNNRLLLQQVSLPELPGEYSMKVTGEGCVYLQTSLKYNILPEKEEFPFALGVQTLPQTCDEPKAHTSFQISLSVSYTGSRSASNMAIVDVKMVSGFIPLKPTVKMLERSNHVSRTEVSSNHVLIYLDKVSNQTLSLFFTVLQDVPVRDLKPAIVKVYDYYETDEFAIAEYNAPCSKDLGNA
Protocol: Utilizing the facts that trypsin is inhibited by α2-macroglobulin and that trypsin causes yellow coloring of a coloring matrix S2222 resulting from decomposition thereof, verification was carried out for effects of methylamine, ethylamine, polyethyleneimines with molecular weights of 600 and 10000, tobramycin, ammonia, lysozyme chloride and polylysine on deactivation of α2-macroglobulin. A concrete method will be given below.
Firstly, each of methylamine, ethylamine, polyethyleneimines with molecular weights of 600 and 10000, tobramycin, ammonia, lysozyme chloride and polylysine was diluted to 0.0001 w/v %, 0.001 w/v %, 0.01 w/v %, 0.1 w/v % and 1 w/v % to prepare a series of diluted solutions as sample solutions. 50 μL of each sample solution was added with 50 μL of 2.5×10^−4 w/v % α2-macroglobulin and left for 5 minutes at room temperature. Then, the sample solution was added with 50 μL of a 5 w/v % trypsin EDTA solution, left for 5 minutes at room temperature, and then added with 10 μL of the coloring matrix S2222. After leaving the resultant sample solution for 20 minutes at room temperature, the sample solution was added with 50 μL of 10 w/v % acetic acid solution to stop reactions, and then subjected to measurement of absorption of light with a wave length of 405 nm, using 50 mM tris(hydroxymethyl)aminomethane buffer solution of pH 8.0 as the blank. The dilution of all the samples and agents was carried out by a 50 mM tris(hydroxymethyl)aminomethane buffer solution of pH 8.0. Results are shown in FIG. 5, in which the ordinate denotes the deactivation rate of α2-macroglobulin, and the abscissa denotes the concentrations of respective compounds.

[3] = compound concentration 0.1 w/v %

With `O=C1CCC(=O)N1Cl` [N-chlorsuccinimide] the “number of migrating vascular smooth muscles” value ([1]; 80 mM N-chlorsuccinimide in fibrin gel) was “vanished completely”, the “frequency of migration of the vascular smooth muscles into the gel” value ([1]; N-chlorsuccinimide 0.08, 0.8, 8 and 80 mM in fibrin gel, n=3) was “decreases apparently with increasing concentration” and the “neointimal hyperplasia (degree of intimal thickening, I/M ratio)” value [2] was “considerably inhibited”.
With `CN` [methylamine] the “deactivation rate of α2-macroglobulin” value (α2-macroglobulin; compound concentration 1 w/v %) was “about 100%”.
In the case of lysozyme chloride, the “deactivation rate of α2-macroglobulin” value (α2-macroglobulin; [3]) is reported as 100%.
For polylysine, the “deactivation rate of α2-macroglobulin” value (α2-macroglobulin; [3]) was 100%.
